Test results from ChEMBL document CHEMBL4622906, “Design, synthesis and evaluation of novel levoglucosenone derivatives as promising anticancer agents” (Bioorg Med Chem Lett, 2020).
Active and inactive are the calls of the source. The calls are words filed in the database; no cut-off is given here.

Columns and labels:
MDA-MB-231 [1] = experiment: Cytotoxicity against human MDA-MB-231 cells assessed as reduction in cell viability incubated for 48 hrs by MTT assay; format: functional, cell-based; details: MDA-MB-231, 48 h
NCI-H1299 [2] = experiment: Cytotoxicity against human H1299 cells assessed as reduction in cell viability incubated for 48 hrs by MTT assay; format: functional, cell-based; details: NCI-H1299, 48 h
HT-29 = experiment: Cytotoxicity against human HT-29 cells assessed as reduction in cell viability incubated for 48 hrs by MTT assay; format: functional, cell-based; details: HT-29, 48 h
MDA-MB-231 [3] = experiment: Cytotoxicity against human MDA-MB-231 cells with p53 knock down assessed as reduction in cell viability incubated for 48 hrs by MTT assay; format: functional, cell-based
NCI-H1299 [4] = experiment: Cytotoxicity against human H1299 cells with p53 R280K mutant assessed as reduction in cell viability incubated for 48 hrs by MTT assay; format: functional, cell-based
[5] = Selectivity index, ratio of IC50 for African green monkey Vero cells to IC50 for human MDA-MB-231 cells; format: toxicity; details: Vero cells versus MDA-MB-231 cells, read-out: Ratio IC50
[6] = Selectivity index, ratio of IC50 for African green monkey Vero cells to IC50 for human H1299 cells; format: toxicity; details: Vero cells versus H1299 cells, read-out: Ratio IC50
[7] = Selectivity index, ratio of IC50 for African green monkey Vero cells to IC50 for human HT-29 cells; format: toxicity; details: Vero cells versus HT-29 cells, read-out: Ratio IC50

COc1ccc(/C=C/c2cc(CO[C@H]3CC(=O)[C@@H]4OC[C@H]3O4)on2)cc1
IC50 (MDA-MB-231 [1]): 26.4 µM

O=C1C[C@H](OCc2cc(/C=C/c3ccccc3)no2)[C@H]2CO[C@@H]1O2
IC50 (MDA-MB-231 [1]): 22.9 µM | IC50 (NCI-H1299 [2]): 7.1 µM | IC50 (HT-29): 13.7 µM | inhibition (MDA-MB-231 [3]): inactive | cytotoxicity activity call (active/inactive) (NCI-H1299 [4]): Active

O=C1CCCCC1n1cc(CO[C@H]2CC(=O)[C@@H]3OC[C@H]2O3)nn1 (some centres undefined)
IC50 (MDA-MB-231 [1]): 36 µM

C=C(C)Cn1cc(CO[C@H]2CC(=O)[C@@H]3OC[C@H]2O3)nn1
IC50 (MDA-MB-231 [1]): 26.7 µM | IC50 (NCI-H1299 [2]): 14.3 µM | IC50 (HT-29): 17.2 µM | inhibition (MDA-MB-231 [3]): inactive | cytotoxicity activity call (active/inactive) (NCI-H1299 [4]): Active

O=C1C[C@H](OCc2cn(-c3ccc(F)cc3)nn2)[C@H]2CO[C@@H]1O2
IC50 (MDA-MB-231 [1]): 23.7 µM

O=C1C[C@H](OCc2cn(-c3ccc(Cl)cc3)nn2)[C@H]2CO[C@@H]1O2
IC50 (MDA-MB-231 [1]): 26.1 µM | IC50 (NCI-H1299 [2]): 10.6 µM | IC50 (HT-29): 14.7 µM | inhibition (MDA-MB-231 [3]): inactive | cytotoxicity activity call (active/inactive) (NCI-H1299 [4]): Active

O=C1C[C@H](OCc2cn(-c3ccc([N+](=O)[O-])cc3)nn2)[C@H]2CO[C@@H]1O2
IC50 (MDA-MB-231 [1]): 24.8 µM | IC50 (NCI-H1299 [2]): 10.3 µM | IC50 (HT-29): 18.3 µM | inhibition (MDA-MB-231 [3]): inactive | cytotoxicity activity call (active/inactive) (NCI-H1299 [4]): Active

CC(=O)N(Cc1cn(Cc2ccccc2)nn1)[C@H]1CC(=O)[C@@H]2OC[C@H]1O2
IC50 (MDA-MB-231 [1]): > 50 µM

O=C1C[C@H](OCc2cn(-c3ccccc3)nn2)[C@H]2CO[C@@H]1O2
IC50 (MDA-MB-231 [1]): 25.2 µM | IC50 (NCI-H1299 [2]): 10.9 µM | IC50 (HT-29): 13.4 µM | inhibition (MDA-MB-231 [3]): inactive | cytotoxicity activity call (active/inactive) (NCI-H1299 [4]): Active

O=C(O)c1ccc(-n2cc(CO[C@H]3CC(=O)[C@@H]4OC[C@H]3O4)nn2)cc1
IC50 (MDA-MB-231 [1]): 23.2 µM

O=C1C[C@H](OCc2cc(-c3ccc(Cl)cc3)no2)[C@H]2CO[C@@H]1O2
IC50 (MDA-MB-231 [1]): 17.9 µM | IC50 (NCI-H1299 [2]): 9 µM | IC50 (HT-29): 14.5 µM | inhibition (MDA-MB-231 [3]): inactive | cytotoxicity activity call (active/inactive) (NCI-H1299 [4]): Active

O=C1C[C@H](OCc2cn(Cc3ccc([N+](=O)[O-])cc3)nn2)[C@H]2CO[C@@H]1O2
IC50 (MDA-MB-231 [1]): 25.4 µM

O=C1C[C@H](OCc2cn(C3CCCCC3)nn2)[C@H]2CO[C@@H]1O2
IC50 (MDA-MB-231 [1]): 24.3 µM | IC50 (NCI-H1299 [2]): 12 µM | IC50 (HT-29): 11.9 µM | selectivity ratio [5]: > 2 | inhibition (MDA-MB-231 [3]): inactive | selectivity ratio [6]: 5 | selectivity ratio [7]: 6 | cytotoxicity activity call (active/inactive) (NCI-H1299 [4]): Active

COc1ccc(Cn2cc(CO[C@H]3CC(=O)[C@@H]4OC[C@H]3O4)nn2)cc1
IC50 (MDA-MB-231 [1]): 34.8 µM

O=C1C[C@H](OCc2cc(-c3ccccc3)no2)[C@H]2CO[C@@H]1O2
IC50 (MDA-MB-231 [1]): 21.9 µM | IC50 (NCI-H1299 [2]): 9.8 µM | IC50 (HT-29): 16.9 µM | inhibition (MDA-MB-231 [3]): inactive | cytotoxicity activity call (active/inactive) (NCI-H1299 [4]): Active

CCCCCCCCn1cc(CO[C@H]2CC(=O)[C@@H]3OC[C@H]2O3)nn1
IC50 (MDA-MB-231 [1]): > 50 µM

O=C1C[C@H](OCc2cn(Cc3ccc4ccccc4c3)nn2)[C@H]2CO[C@@H]1O2
IC50 (MDA-MB-231 [1]): 23.7 µM

COC(=O)Cn1cc(CN(C(C)=O)[C@H]2CC(=O)[C@@H]3OC[C@H]2O3)nn1
IC50 (MDA-MB-231 [1]): > 50 µM

O=C1C[C@H](OCc2cn(-c3cccc(Cl)c3Cl)nn2)[C@H]2CO[C@@H]1O2
IC50 (MDA-MB-231 [1]): 26 µM

O=C1C[C@H](OCc2cc(-c3ccc([N+](=O)[O-])cc3)no2)[C@H]2CO[C@@H]1O2
IC50 (MDA-MB-231 [1]): 16.5 µM | IC50 (NCI-H1299 [2]): 11.2 µM | IC50 (HT-29): 19.8 µM | inhibition (MDA-MB-231 [3]): inactive | cytotoxicity activity call (active/inactive) (NCI-H1299 [4]): Active

CC(=O)N(Cc1cn(CC(=O)c2ccccc2)nn1)[C@H]1CC(=O)[C@@H]2OC[C@H]1O2
IC50 (MDA-MB-231 [1]): > 50 µM

COC(=O)Cn1cc(CO[C@H]2CC(=O)[C@@H]3OC[C@H]2O3)nn1
IC50 (MDA-MB-231 [1]): 21.3 µM

COc1ccc(-c2cc(CO[C@H]3CC(=O)[C@@H]4OC[C@H]3O4)on2)cc1
IC50 (MDA-MB-231 [1]): 21.9 µM

O=C1C[C@H](OCc2cn(-c3ccccc3Cl)nn2)[C@H]2CO[C@@H]1O2
IC50 (MDA-MB-231 [1]): 26.4 µM

CCCCn1cc(CO[C@H]2CC(=O)[C@@H]3OC[C@H]2O3)nn1
IC50 (MDA-MB-231 [1]): 27.9 µM

O=C1C[C@H](OCc2cn(C(=O)OCC3c4ccccc4-c4ccccc43)nn2)[C@H]2CO[C@@H]1O2
IC50 (MDA-MB-231 [1]): 18.6 µM | IC50 (NCI-H1299 [2]): 9 µM | IC50 (HT-29): 15.6 µM | selectivity ratio [5]: > 2 | inhibition (MDA-MB-231 [3]): inactive | selectivity ratio [6]: 5 | selectivity ratio [7]: 6 | cytotoxicity activity call (active/inactive) (NCI-H1299 [4]): Active

CCCCCCCCn1cc(CN(C(C)=O)[C@H]2CC(=O)[C@@H]3OC[C@H]2O3)nn1
IC50 (MDA-MB-231 [1]): > 50 µM

O=C(Cn1cc(CO[C@H]2CC(=O)[C@@H]3OC[C@H]2O3)nn1)c1ccccc1
IC50 (MDA-MB-231 [1]): 25.9 µM

O=C1C[C@H](OCc2cc(C3CCCCC3)no2)[C@H]2CO[C@@H]1O2
IC50 (MDA-MB-231 [1]): 15.8 µM | IC50 (NCI-H1299 [2]): 6.1 µM | IC50 (HT-29): 9 µM | inhibition (MDA-MB-231 [3]): inactive | cytotoxicity activity call (active/inactive) (NCI-H1299 [4]): Active

O=C1C[C@H](OCc2cn(-c3cccc4ccccc34)nn2)[C@H]2CO[C@@H]1O2
IC50 (MDA-MB-231 [1]): 21.9 µM

O=C1C[C@H](OCc2cn(-c3ccccc3Br)nn2)[C@H]2CO[C@@H]1O2
IC50 (MDA-MB-231 [1]): 22.5 µM

O=C1C[C@H](OCc2cc(-c3ccc(Cl)o3)no2)[C@H]2CO[C@@H]1O2
IC50 (MDA-MB-231 [1]): 13.8 µM | IC50 (NCI-H1299 [2]): 7.6 µM | IC50 (HT-29): 10.1 µM | inhibition (MDA-MB-231 [3]): inactive | cytotoxicity activity call (active/inactive) (NCI-H1299 [4]): Active

O=C1C[C@H](OCc2cn(Cc3ccccc3)nn2)[C@H]2CO[C@@H]1O2
IC50 (MDA-MB-231 [1]): > 50 µM

O=C1C[C@H](OCc2cc(-c3ccc4ccccc4c3)no2)[C@H]2CO[C@@H]1O2
IC50 (MDA-MB-231 [1]): 21.2 µM

O=C1C[C@H](OCc2cc(-c3cc(C(F)(F)F)cc(C(F)(F)F)c3)no2)[C@H]2CO[C@@H]1O2
IC50 (MDA-MB-231 [1]): 23.9 µM
